Test results reported in patent US4434170A, “Nor-tropane derivatives, and their application in therapeutics” (Delalande S.A., priority 1980, dated 1984).

system: apomorphinic straightenings; assay: Antagonism to apomorphinic straightenings (mice); type: in vivo; conditions: Mus musculus, ip, read-out: Antagonism to apomorphinic straightenings (mice) ED 50
From the text: (§1) I. C. Niemegeers and A. H. M. Jageneau in Arzneim-Forsch. (1960), 10, 1003.

SMILES	ED50 [mg/kg]
COc1cc(N)c(Br)cc1C(=O)N[C@@H]1C[C@H]2CC[C@@H](C1)N2Cc1ccccc1Cl [compound 121]	0.024
CCOc1cc(N)c(Br)cc1C(=O)N[C@@H]1C[C@H]2CC[C@@H](C1)N2Cc1ccc(Cl)cc1 [compound 123]	0.041
COc1cc(SC)cc(C(=O)N[C@@H]2C[C@H]3CC[C@@H](C2)N3Cc2ccccc2)c1OC [compound 168]	0.28
COc1cccc(C(=O)N[C@@H]2C[C@H]3CC[C@@H](C2)N3Cc2cccc(F)c2)c1OC [compound 113]	0.016
COc1cccc(C(=O)N[C@@H]2C[C@H]3CCC[C@@H](C2)N3Cc2ccccc2)c1OC [compound 148]	0.008
COc1cc(OC)c(OC)c(C(=O)N[C@@H]2C[C@H]3CC[C@@H](C2)N3Cc2ccccc2)c1 [compound 135]	0.01
COc1cc(N)c(Br)cc1C(=O)N[C@@H]1C[C@H]2CC[C@@H](C1)N2Cc1ccccc1F [compound 131]	0.013
COc1cc(N)c(Cl)cc1C(=O)N[C@@H]1C[C@H]2CC[C@@H](C1)N2Cc1cccc(F)c1 [compound 127]	0.007
COc1cc(N)c(Cl)cc1C(=O)N[C@@H]1C[C@H]2CC[C@@H](C1)N2Cc1cccc(C)c1 [compound 169]	0.034
COc1cccc(C(=O)N[C@@H]2C[C@H]3CC[C@@H](C2)N3Cc2ccc(Cl)cc2)c1OC [compound 112]	0.029
CCOc1c(OC)cccc1C(=O)N[C@@H]1C[C@H]2CCC[C@@H](C1)N2Cc1ccccc1 [compound 143]	0.025
COc1cccc(C(=O)N[C@@H]2C[C@H]3CC[C@@H](C2)N3Cc2ccc(Br)cc2)c1OC [compound 129]	0.008
CCSc1cc(OC)c(OC)c(C(=O)N[C@@H]2C[C@H]3CC[C@@H](C2)N3Cc2ccccc2)c1 [compound 174]	0.034
CCOc1cc(N)c(Br)cc1C(=O)N[C@@H]1C[C@H]2CC[C@@H](C1)N2Cc1cccc(Cl)c1 [compound 126]	0.054
CCOc1cccc(C(=O)N[C@@H]2C[C@H]3CC[C@@H](C2)N3Cc2ccccc2)c1OCC [compound 115]	0.038
COc1cccc(C(=O)N[C@@H]2C[C@H]3CC[C@@H](C2)N3Cc2cccc(Cl)c2)c1OC [compound 173]	0.013
COc1cc(Br)cc(C(=O)N[C@@H]2C[C@H]3CC[C@@H](C2)N3Cc2ccccc2)c1OC [compound 147]	0.042
CCOc1c(OC)cc(OC)cc1C(=O)N[C@@H]1C[C@H]2CC[C@@H](C1)N2Cc1ccccc1 [compound 141]	0.035
CCOc1c(OC)cccc1C(=O)N[C@@H]1C[C@H]2CC[C@@H](C1)N2Cc1ccccc1 [compound 139]	0.01
COc1cccc(C(=O)N[C@@H]2C[C@H]3CC[C@@H](C2)N3Cc2ccc(C#N)cc2)c1OC [compound 180]	0.01
COc1cccc(C(=O)N[C@@H]2C[C@H]3CC[C@@H](C2)N3Cc2ccc(F)cc2)c1OC [compound 155]	0.005
CCOc1c(OC)cccc1C(=O)N[C@@H]1C[C@H]2CC[C@@H](C1)N2Cc1ccc(Cl)c(Cl)c1 [compound 145]	0.3
COc1cc(C(C)=O)cc(C(=O)N[C@@H]2C[C@H]3CC[C@@H](C2)N3Cc2ccccc2)c1OC [compound 171]	0.029
COc1cccc(C(=O)N[C@@H]2C[C@H]3CC[C@@H](C2)N3Cc2ccc(C)cc2)c1OC [compound 120]	0.032
CCOc1cccc(C(=O)N[C@@H]2C[C@H]3CC[C@@H](C2)N3Cc2ccccc2)c1OC [compound 140]	0.019
COc1c(N)cc(Br)cc1C(=O)N[C@@H]1C[C@H]2CC[C@@H](C1)N2Cc1ccccc1 [compound 106]	0.053
COc1cccc(C(=O)N[C@@H]2C[C@H]3CC[C@@H](C2)N3Cc2cccc(C)c2)c1OC [compound 118]	0.016
COc1cc(N)c(Br)cc1C(=O)N[C@@H]1C[C@H]2CC[C@@H](C1)N2Cc1ccoc1 [compound 132]	0.12
COc1cc([N+](=O)[O-])cc(C(=O)N[C@@H]2C[C@H]3CC[C@@H](C2)N3Cc2ccccc2)c1OC [compound 142]	0.012

system: vomiting induced by apomorphine; assay: Antiemetic activity (dogs), vomiting induced by apomorphine; type: in vivo; conditions: 0.01 mg/kg/po, one hour before apomorphine 0.1 mg/kg subcutaneous

SMILES	Antiemetic activity: % inhibition of vomiting induced by apomorphine [%]
COc1cc(N)c(Br)cc1C(=O)N[C@@H]1C[C@H]2CC[C@@H](C1)N2Cc1ccoc1 [compound 132]	100

same assay, conditions: 0.1 mg/kg/po, one hour before apomorphine 0.1 mg/kg subcutaneous

SMILES	Antiemetic activity: % inhibition of vomiting induced by apomorphine [%]
COc1cc(Br)cc(C(=O)N[C@@H]2C[C@H]3CC[C@@H](C2)N3Cc2ccccc2)c1OC [compound 147]	100

system: gastric evacuation; assay: Gastric evacuation test (rat); type: in vivo; conditions: 0.3 mg/kg/po
Method: The compounds of formula (I) were administered orally simultaneously with 20 steel balls to wakeful rats starved for 20 hours.

SMILES	Gastric evacuation: % animals whose stomach contains no ball after 90 minutes [%]
COc1cc(Br)cc(C(=O)N[C@@H]2C[C@H]3CC[C@@H](C2)N3Cc2ccccc2)c1OC [compound 147]	25

same assay, conditions: 0.6 mg/kg/po

SMILES	Gastric evacuation: % animals whose stomach contains no ball after 90 minutes [%]
COc1cc(Br)cc(C(=O)N[C@@H]2C[C@H]3CC[C@@H](C2)N3Cc2ccccc2)c1OC [compound 147]	63
COc1cc(N)c(Br)cc1C(=O)N[C@@H]1C[C@H]2CC[C@@H](C1)N2Cc1ccoc1 [compound 132]	25

same assay, conditions: 1.3 mg/kg/po

SMILES	Gastric evacuation: % animals whose stomach contains no ball after 90 minutes [%]
COc1cc(N)c(Br)cc1C(=O)N[C@@H]1C[C@H]2CC[C@@H](C1)N2Cc1ccoc1 [compound 132]	50

same assay, conditions: 5 mg/kg/po

SMILES	Gastric evacuation: % animals whose stomach contains no ball after 90 minutes [%]
COc1cc(N)c(Br)cc1C(=O)N[C@@H]1C[C@H]2CC[C@@H](C1)N2Cc1ccoc1 [compound 132]	75

same assay, conditions: 10 mg/kg/po

SMILES	Gastric evacuation: % animals whose stomach contains no ball after 90 minutes [%]
COc1cc(Br)cc(C(=O)N[C@@H]2C[C@H]3CC[C@@H](C2)N3Cc2ccccc2)c1OC [compound 147]	90
COc1cc(N)c(Br)cc1C(=O)N[C@@H]1C[C@H]2CC[C@@H](C1)N2Cc1ccoc1 [compound 132]	100

system: not listed separately; assay: Stair case test (rat); type: in vivo; conditions: po, sedative effect

SMILES	ED50 [mg/kg]
CCOc1cc(N)c(Br)cc1C(=O)N[C@@H]1C[C@H]2CC[C@@H](C1)N2Cc1ccc(Cl)cc1 [compound 123]	1.7
COc1cc(N)c(Cl)cc1C(=O)N[C@@H]1C[C@H]2CC[C@@H](C1)N2Cc1cccc(C)c1 [compound 169]	3.5
CCOc1c(OC)cccc1C(=O)N[C@@H]1C[C@H]2CCC[C@@H](C1)N2Cc1ccccc1 [compound 143]	1.6
CCOc1cccc(C(=O)N[C@@H]2C[C@H]3CC[C@@H](C2)N3Cc2ccccc2)c1OCC [compound 115]	1.3
CCOc1c(OC)cccc1C(=O)N[C@@H]1C[C@H]2CC[C@@H](C1)N2Cc1ccccc1 [compound 139]	0.3
COc1c(N)cc(Br)cc1C(=O)N[C@@H]1C[C@H]2CC[C@@H](C1)N2Cc1ccccc1 [compound 106]	8

system: not listed separately; assay: Acute toxicity (mice); conditions: mouse, in vivo, ip, read-out: Toxicity (mice) LD 50
Method: The acute toxicity of the compounds of the invention was also tested intraperitoneally on mice.

SMILES	LD50 [mg/kg]
COc1cc(N)c(Br)cc1C(=O)N[C@@H]1C[C@H]2CC[C@@H](C1)N2Cc1ccccc1Cl [compound 121]	250
CCOc1cc(N)c(Br)cc1C(=O)N[C@@H]1C[C@H]2CC[C@@H](C1)N2Cc1ccc(Cl)cc1 [compound 123]	> 400
COc1cc(SC)cc(C(=O)N[C@@H]2C[C@H]3CC[C@@H](C2)N3Cc2ccccc2)c1OC [compound 168]	120
COc1cccc(C(=O)N[C@@H]2C[C@H]3CC[C@@H](C2)N3Cc2cccc(F)c2)c1OC [compound 113]	140
COc1cccc(C(=O)N[C@@H]2C[C@H]3CCC[C@@H](C2)N3Cc2ccccc2)c1OC [compound 148]	100
COc1cc(OC)c(OC)c(C(=O)N[C@@H]2C[C@H]3CC[C@@H](C2)N3Cc2ccccc2)c1 [compound 135]	70
COc1cc(N)c(Br)cc1C(=O)N[C@@H]1C[C@H]2CC[C@@H](C1)N2Cc1ccccc1F [compound 131]	250
COc1cc(N)c(Cl)cc1C(=O)N[C@@H]1C[C@H]2CC[C@@H](C1)N2Cc1cccc(F)c1 [compound 127]	200
COc1cc(N)c(Cl)cc1C(=O)N[C@@H]1C[C@H]2CC[C@@H](C1)N2Cc1cccc(C)c1 [compound 169]	70
COc1cccc(C(=O)N[C@@H]2C[C@H]3CC[C@@H](C2)N3Cc2ccc(Cl)cc2)c1OC [compound 112]	220
CCOc1c(OC)cccc1C(=O)N[C@@H]1C[C@H]2CCC[C@@H](C1)N2Cc1ccccc1 [compound 143]	110
COc1cccc(C(=O)N[C@@H]2C[C@H]3CC[C@@H](C2)N3Cc2ccc(Br)cc2)c1OC [compound 129]	180
CCSc1cc(OC)c(OC)c(C(=O)N[C@@H]2C[C@H]3CC[C@@H](C2)N3Cc2ccccc2)c1 [compound 174]	95
CCOc1cc(N)c(Br)cc1C(=O)N[C@@H]1C[C@H]2CC[C@@H](C1)N2Cc1cccc(Cl)c1 [compound 126]	> 400
CCOc1cccc(C(=O)N[C@@H]2C[C@H]3CC[C@@H](C2)N3Cc2ccccc2)c1OCC [compound 115]	53
COc1cccc(C(=O)N[C@@H]2C[C@H]3CC[C@@H](C2)N3Cc2cccc(Cl)c2)c1OC [compound 173]	160
COc1cc(Br)cc(C(=O)N[C@@H]2C[C@H]3CC[C@@H](C2)N3Cc2ccccc2)c1OC [compound 147]	165
CCOc1c(OC)cc(OC)cc1C(=O)N[C@@H]1C[C@H]2CC[C@@H](C1)N2Cc1ccccc1 [compound 141]	115
CCOc1c(OC)cccc1C(=O)N[C@@H]1C[C@H]2CC[C@@H](C1)N2Cc1ccccc1 [compound 139]	76
COc1cccc(C(=O)N[C@@H]2C[C@H]3CC[C@@H](C2)N3Cc2ccc(C#N)cc2)c1OC [compound 180]	275
COc1cccc(C(=O)N[C@@H]2C[C@H]3CC[C@@H](C2)N3Cc2ccc(F)cc2)c1OC [compound 155]	140
CCOc1c(OC)cccc1C(=O)N[C@@H]1C[C@H]2CC[C@@H](C1)N2Cc1ccc(Cl)c(Cl)c1 [compound 145]	> 400
COc1cc(C(C)=O)cc(C(=O)N[C@@H]2C[C@H]3CC[C@@H](C2)N3Cc2ccccc2)c1OC [compound 171]	115
COc1cccc(C(=O)N[C@@H]2C[C@H]3CC[C@@H](C2)N3Cc2ccc(C)cc2)c1OC [compound 120]	100
CCOc1cccc(C(=O)N[C@@H]2C[C@H]3CC[C@@H](C2)N3Cc2ccccc2)c1OC [compound 140]	70
COc1c(N)cc(Br)cc1C(=O)N[C@@H]1C[C@H]2CC[C@@H](C1)N2Cc1ccccc1 [compound 106]	160
COc1cccc(C(=O)N[C@@H]2C[C@H]3CC[C@@H](C2)N3Cc2cccc(C)c2)c1OC [compound 118]	90
COc1cc(N)c(Br)cc1C(=O)N[C@@H]1C[C@H]2CC[C@@H](C1)N2Cc1ccoc1 [compound 132]	200
COc1cc([N+](=O)[O-])cc(C(=O)N[C@@H]2C[C@H]3CC[C@@H](C2)N3Cc2ccccc2)c1OC [compound 142]	87.5

system: apomorphine induced stereotypies; assay: Antagonism to the apomorphine induced stereotypies (rat); type: in vivo; conditions: po
From the text: as §1

SMILES	ED50 [mg/kg]
CCOc1cc(N)c(Br)cc1C(=O)N[C@@H]1C[C@H]2CC[C@@H](C1)N2Cc1ccc(Cl)cc1 [compound 123]	0.2
COc1cc(N)c(Cl)cc1C(=O)N[C@@H]1C[C@H]2CC[C@@H](C1)N2Cc1cccc(C)c1 [compound 169]	0.46
CCOc1c(OC)cccc1C(=O)N[C@@H]1C[C@H]2CCC[C@@H](C1)N2Cc1ccccc1 [compound 143]	0.26
CCOc1cccc(C(=O)N[C@@H]2C[C@H]3CC[C@@H](C2)N3Cc2ccccc2)c1OCC [compound 115]	0.22
CCOc1c(OC)cccc1C(=O)N[C@@H]1C[C@H]2CC[C@@H](C1)N2Cc1ccccc1 [compound 139]	0.06
COc1c(N)cc(Br)cc1C(=O)N[C@@H]1C[C@H]2CC[C@@H](C1)N2Cc1ccccc1 [compound 106]	1.6
